Source: ChEMBL document CHEMBL1201862, “PubChem BioAssay data set” (2004)
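Following 48 hours of exposure in 96-well plates, responses at five concentrations were used to interpolate endpoints linearly. Abbreviation: GI50, concentration required for 50% inhibition of growth.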 Activity calls are given as the source filed them. Rule as the data show it: active = GI50 up to about 1.1 µM and inactive = higher.

What was measured:
Experiment in all cases: NCI anticancer screen, dose series, 48 h
[1] = test system: LOX IMVI
[2] = test system: EKVX
[3] = test system: OVCAR-3
[4] = test system: SK-MEL-28
[5] = test system: RPMI-8226
[6] = test system: BT-549
[7] = test system: CAKI-1
[8] = test system: NCI-H460
[9] = test system: MCF7
[10] = test system: 786-0
[11] = test system: KM12
[12] = test system: IGROV-1
[13] = test system: SK-MEL-5
[14] = test system: SF-268
[15] = test system: K562
[16] = test system: MOLT-4
[17] = test system: NCI/ADR-RES
[18] = test system: HCT-15
[19] = test system: OVCAR-5
[20] = test system: HCC 2998
[21] = test system: UO-31
[22] = test system: T47D
[23] = test system: A498
[24] = test system: SNB-19
[25] = test system: HL-60
[26] = test system: HOP-62
[27] = test system: SK-OV-3
[28] = test system: OVCAR-8
[29] = test system: Hs-578T
[30] = test system: U-251
[31] = test system: HCT-116
[32] = test system: SK-MEL-2
[33] = test system: HOP-92
[34] = test system: TK-10
[35] = test system: MDA-MB-231
[36] = test system: ACHN
[37] = test system: Malme-3M
[38] = test system: SNB-75
[39] = test system: COLO 205
[40] = test system: UACC-62
[41] = test system: NCI-H522
[42] = test system: HT-29
[43] = test system: SW-620
[44] = test system: SF-295
[45] = test system: DU-145
[46] = test system: NCI-H226
[47] = test system: M14
[48] = test system: SR
[49] = test system: CCRF-CEM
[50] = test system: SF-539
[51] = test system: NCI-H23
[52] = test system: UACC-257
[53] = test system: A549
[54] = test system: OVCAR-4
[55] = test system: SN12C
[56] = test system: MDA-MB-435
[57] = test system: PC-3
[58] = test system: MDA-N
[59] = test system: RXF 393

In the case of `C#CC1(OC(C)=O)CCC2C3CC=C4C=C(OC(C)=O)CCC4(C)C3CCC21C` (centres undefined), the GI50 [1] is reported as 22.7 µM (inactive), the GI50 [2] is reported as 30.5 µM (inactive) and the GI50 [3] is reported as 20 µM (inactive). For the same molecule, the GI50 [4] was 25.9 µM (inactive), the GI50 [5] was < 0.01 µM (active) and the GI50 [6] was 31.8 µM (inactive). The GI50 [7] was 36.5 µM (inactive), the GI50 [8] was 27 µM (inactive) and the GI50 [9] was 24.5 µM (inactive). For the same molecule, the GI50 [10] was 30.3 µM (inactive), the GI50 [11] was 20.4 µM (inactive) and the GI50 [12] was 19.3 µM (inactive). For the same molecule, the GI50 [13] was 18.3 µM (inactive), the GI50 [14] was 23.8 µM (inactive) and the GI50 [15] was 23.9 µM (inactive). For the same molecule, the GI50 [16] was 13.2 µM (inactive), the GI50 [17] was 26.9 µM (inactive) and the GI50 [18] was 23.3 µM. For the same molecule, the GI50 [19] was 34.7 µM (inactive), the GI50 [20] was 16 µM (inactive) and the GI50 [21] was 23.1 µM (inactive). For the same molecule, the GI50 [22] was 61.5 µM (inactive), the GI50 [23] was 46.6 µM (inactive) and the GI50 [24] was 32.4 µM (inactive). The GI50 [25] was 28.6 µM (inactive), the GI50 [26] was 44.9 µM (inactive) and the GI50 [27] was 36.2 µM (inactive). The GI50 [28] was 19.1 µM (inactive), the GI50 [29] was 40.4 µM (inactive) and the GI50 [30] was 19.5 µM (inactive). For the same molecule, the GI50 [31] was 16.2 µM (inactive), the GI50 [32] was 19.7 µM (inactive) and the GI50 [33] was 16.1 µM (inactive). The GI50 [34] was 24.3 µM (inactive), the GI50 [35] was 24.2 µM (inactive) and the GI50 [36] was 26.7 µM (inactive). The GI50 [37] was 18 µM (inactive), the GI50 [38] was 28.1 µM (inactive) and the GI50 [39] was 16.2 µM (inactive). The GI50 [40] was 18.3 µM (inactive), the GI50 [41] was 17.4 µM (inactive) and the GI50 [42] was 17.2 µM (inactive). The GI50 [43] was 23.4 µM (inactive), the GI50 [44] was 25.2 µM (inactive) and the GI50 [45] was 31.1 µM (inactive). For the same molecule, the GI50 [46] was 24.8 µM (inactive), the GI50 [47] was 26.7 µM (inactive) and the GI50 [48] was 16.3 µM (inactive). The GI50 [49] was 12.6 µM (inactive), the GI50 [50] was 21.3 µM (inactive) and the GI50 [51] was 18.3 µM (inactive). For the same molecule, the GI50 [52] was 17.4 µM (inactive), the GI50 [53] was 31.6 µM (inactive) and the GI50 [54] was 19.4 µM (inactive). For the same molecule, the GI50 [55] was 19.5 µM (inactive) and the GI50 [56] was 20.1 µM (inactive).

`OC1C#CCSCC#C/C=C\1` (centres undefined) was tested, and the GI50 [1] was 45.2 µM (inactive), the GI50 [2] was > 100 µM (inactive) and the GI50 [3] was > 100 µM (inactive). For the same molecule, the GI50 [4] was 89.5 µM (inactive), the GI50 [6] was > 100 µM (inactive) and the GI50 [57] was > 100 µM (inactive). The GI50 [8] was 13.7 µM (inactive), the GI50 [9] was 53.3 µM (inactive) and the GI50 [58] was 81.3 µM (inactive). The GI50 [10] was 3.58 µM (inactive), the GI50 [12] was > 100 µM (inactive) and the GI50 [14] was > 100 µM (inactive). The GI50 [15] was 17.9 µM (inactive), the GI50 [17] was 1.93 µM (inactive) and the GI50 [18] was over 100 µM. The GI50 [19] was > 100 µM (inactive), the GI50 [20] was > 100 µM (inactive) and the GI50 [21] was > 100 µM (inactive). The GI50 [59] was 18 µM (inactive), the GI50 [23] was 76.6 µM (inactive) and the GI50 [24] was > 100 µM (inactive). For the same molecule, the GI50 [25] was 23.6 µM (inactive), the GI50 [26] was > 100 µM (inactive) and the GI50 [27] was > 100 µM (inactive). The GI50 [28] was 3.72 µM (inactive), the GI50 [29] was 34 µM (inactive) and the GI50 [30] was > 100 µM (inactive). For the same molecule, the GI50 [31] was 62.1 µM (inactive), the GI50 [32] was > 100 µM (inactive) and the GI50 [33] was 62.2 µM (inactive). The GI50 [34] was > 100 µM (inactive), the GI50 [35] was > 100 µM (inactive) and the GI50 [36] was > 100 µM (inactive). For the same molecule, the GI50 [37] was 47.1 µM (inactive), the GI50 [38] was > 100 µM (inactive) and the GI50 [39] was 15.2 µM (inactive). The GI50 [40] was > 100 µM (inactive), the GI50 [41] was 17.8 µM (inactive) and the GI50 [42] was 65.9 µM (inactive). The GI50 [43] was 18.4 µM (inactive), the GI50 [44] was > 100 µM (inactive) and the GI50 [45] was > 100 µM (inactive). The GI50 [46] was > 100 µM (inactive), the GI50 [47] was > 100 µM (inactive) and the GI50 [48] was > 100 µM (inactive). For the same molecule, the GI50 [49] was 27 µM (inactive), the GI50 [50] was > 100 µM (inactive) and the GI50 [51] was 80.4 µM (inactive). The GI50 [52] was 30.9 µM (inactive), the GI50 [54] was > 100 µM (inactive) and the GI50 [55] was 94 µM (inactive). For the same molecule, the GI50 [56] was 56 µM (inactive).

In the case of `COc1c(C)c(C/C=C(\C)CC/C=C(\C)CC/C=C(\C)CCC=C(C)C)c(OC)c2ccccc12`, the GI50 [1] is reported as 70 µM (inactive), the GI50 [2] is reported as > 100 µM (inactive) and the GI50 [3] is reported as > 100 µM (inactive). The GI50 [6] was > 100 µM (inactive), the GI50 [57] was > 100 µM (inactive) and the GI50 [7] was > 100 µM (inactive). The GI50 [8] was 39.7 µM (inactive), the GI50 [9] was > 100 µM (inactive) and the GI50 [58] was > 100 µM (inactive). The GI50 [10] was > 100 µM (inactive), the GI50 [11] was > 100 µM (inactive) and the GI50 [12] was 37.2 µM (inactive). The GI50 [13] was > 100 µM (inactive), the GI50 [14] was > 100 µM (inactive) and the GI50 [15] was > 100 µM (inactive). The GI50 [16] was > 100 µM (inactive), the GI50 [17] was > 100 µM (inactive) and the GI50 [18] was over 100 µM. The GI50 [19] was > 100 µM (inactive), the GI50 [21] was > 100 µM (inactive) and the GI50 [59] was > 100 µM (inactive). For the same molecule, the GI50 [24] was > 100 µM (inactive), the GI50 [26] was > 100 µM (inactive) and the GI50 [27] was > 100 µM (inactive). The GI50 [28] was > 100 µM (inactive), the GI50 [29] was > 100 µM (inactive) and the GI50 [30] was > 100 µM (inactive). For the same molecule, the GI50 [31] was > 100 µM (inactive), the GI50 [32] was > 100 µM (inactive) and the GI50 [33] was > 100 µM (inactive). For the same molecule, the GI50 [34] was > 100 µM (inactive), the GI50 [35] was > 100 µM (inactive) and the GI50 [36] was > 100 µM (inactive). The GI50 [38] was > 100 µM (inactive), the GI50 [39] was > 100 µM (inactive) and the GI50 [40] was > 100 µM (inactive). The GI50 [41] was > 100 µM (inactive), the GI50 [42] was > 100 µM (inactive) and the GI50 [43] was > 100 µM (inactive). The GI50 [44] was > 100 µM (inactive), the GI50 [45] was > 100 µM (inactive) and the GI50 [47] was > 100 µM (inactive). The GI50 [48] was 35.7 µM (inactive), the GI50 [49] was 28.5 µM (inactive) and the GI50 [50] was > 100 µM (inactive). The GI50 [51] was > 100 µM (inactive), the GI50 [52] was > 100 µM (inactive) and the GI50 [53] was > 100 µM (inactive). The GI50 [54] was > 100 µM (inactive), the GI50 [55] was > 100 µM (inactive) and the GI50 [56] was > 100 µM (inactive).
